Laboratory results reported in patent US20140228349A1, “5,7-SUBSTITUTED-IMIDAZO[1,2-C]PYRIMIDINES” (Array BioPharma Inc., priority 2011, published 2014).

How the values were obtained:
Type in all cases: biochemical
Human Tyk2 kinase domain = target: T1, Human Tyk2 kinase domain (Homo sapiens, UniProt P29597); assay: Tyk2 Inhibition Assay (Omnia kinase fluorescence peptide substrate); details: averaged IC50 ranges; 10 μM (Km app) or 1 mM ATP, 2 nM Tyk2
T1 construct: comprising amino acids 886 to 1187; His10 (10 histidine residues) (C, cleaved yes); made in house
T1 sequence (P29597 886-1187): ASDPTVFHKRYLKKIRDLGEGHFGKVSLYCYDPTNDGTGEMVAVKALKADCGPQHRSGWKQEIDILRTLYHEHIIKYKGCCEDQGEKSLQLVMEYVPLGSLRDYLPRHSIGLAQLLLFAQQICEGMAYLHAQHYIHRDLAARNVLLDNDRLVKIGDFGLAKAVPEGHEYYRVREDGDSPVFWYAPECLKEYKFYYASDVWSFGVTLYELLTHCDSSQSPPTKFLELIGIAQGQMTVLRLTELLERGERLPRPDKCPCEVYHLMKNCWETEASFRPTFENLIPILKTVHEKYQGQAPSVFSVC
Outline: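 Phosphorylation of 8 μM Omnia Y12 peptide followed kinetically by Sox fluorescence, ex 360/em 485 nm, every 50 s for 45 min. Enzyme: 2 nM Tyk2 kinase domain (aa 886–1187, His tag removed); ATP at 10 μM (Km app) or 1 mM; buffer HEPES pH 7.4 with MgCl2, Triton X-100, DTT. 10-point curves up to 10 μM, IC50 from 4-parameter logistic fit.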

JAK1 = target: T2, JAK1 (Homo sapiens, UniProt P23458); assay: JAK1 Inhibition Assay (Omnia kinase fluorescence peptide substrate); details: averaged IC50 ranges; 40 μM (Km app) or 1 mM ATP, 15 nM JAK1
T2 construct: purchased Invitrogen Corporation, Carlsbad, Calif; IVGN PV4775
T2 sequence (P23458 whole entry): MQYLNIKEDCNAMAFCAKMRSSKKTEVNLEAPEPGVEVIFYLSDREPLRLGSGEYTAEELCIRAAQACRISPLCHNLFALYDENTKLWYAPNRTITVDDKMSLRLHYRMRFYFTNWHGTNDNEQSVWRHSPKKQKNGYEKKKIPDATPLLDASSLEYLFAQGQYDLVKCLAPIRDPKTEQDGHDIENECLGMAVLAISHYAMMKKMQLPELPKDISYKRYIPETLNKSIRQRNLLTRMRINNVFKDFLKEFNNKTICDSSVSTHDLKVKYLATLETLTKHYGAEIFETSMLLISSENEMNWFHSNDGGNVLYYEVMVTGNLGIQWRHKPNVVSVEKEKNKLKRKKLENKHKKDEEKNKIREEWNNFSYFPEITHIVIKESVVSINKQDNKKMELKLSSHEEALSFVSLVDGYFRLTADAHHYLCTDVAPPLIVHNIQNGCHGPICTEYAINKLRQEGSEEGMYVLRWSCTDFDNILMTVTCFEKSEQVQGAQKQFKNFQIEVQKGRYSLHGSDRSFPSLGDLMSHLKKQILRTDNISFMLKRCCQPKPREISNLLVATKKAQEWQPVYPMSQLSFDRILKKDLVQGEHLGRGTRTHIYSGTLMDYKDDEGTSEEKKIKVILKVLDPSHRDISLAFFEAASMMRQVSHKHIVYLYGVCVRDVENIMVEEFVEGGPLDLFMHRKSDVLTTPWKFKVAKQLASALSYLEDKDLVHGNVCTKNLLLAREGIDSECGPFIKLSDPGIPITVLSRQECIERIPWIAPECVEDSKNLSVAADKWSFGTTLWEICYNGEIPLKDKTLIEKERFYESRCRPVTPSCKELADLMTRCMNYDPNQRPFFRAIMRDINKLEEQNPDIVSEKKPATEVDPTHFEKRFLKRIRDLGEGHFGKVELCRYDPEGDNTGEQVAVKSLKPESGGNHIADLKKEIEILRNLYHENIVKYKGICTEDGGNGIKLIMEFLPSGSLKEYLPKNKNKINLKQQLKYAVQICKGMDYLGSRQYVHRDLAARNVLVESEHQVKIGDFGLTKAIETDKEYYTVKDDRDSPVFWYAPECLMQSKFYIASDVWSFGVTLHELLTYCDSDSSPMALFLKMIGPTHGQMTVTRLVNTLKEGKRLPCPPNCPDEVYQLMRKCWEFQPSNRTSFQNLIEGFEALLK
Outline: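 15 nM JAK1, 8 μM Omnia Y12 peptide, 40 μM (Km app) or 1 mM ATP; 25 mM HEPES pH 7.4, 10 mM MgCl2, 2% DMSO. Fluorescence (ex 360/em 485 nm) read every 50 s over 45 min. IC50 by 4-parameter fit of percent of control, top dose 10 μM.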

JAK2 = target: T3, JAK2 (Homo sapiens, UniProt O60674); assay: JAK2 Inhibition Assay (Omnia kinase fluorescence peptide substrate); details: averaged IC50 ranges; 25 μM (Km app) or 1 mM ATP, 5 nM JAK2
T3 construct: purchased Invitrogen Corporation, Carlsbad, Calif; IVGN PV4288
T3 sequence (O60674 whole entry): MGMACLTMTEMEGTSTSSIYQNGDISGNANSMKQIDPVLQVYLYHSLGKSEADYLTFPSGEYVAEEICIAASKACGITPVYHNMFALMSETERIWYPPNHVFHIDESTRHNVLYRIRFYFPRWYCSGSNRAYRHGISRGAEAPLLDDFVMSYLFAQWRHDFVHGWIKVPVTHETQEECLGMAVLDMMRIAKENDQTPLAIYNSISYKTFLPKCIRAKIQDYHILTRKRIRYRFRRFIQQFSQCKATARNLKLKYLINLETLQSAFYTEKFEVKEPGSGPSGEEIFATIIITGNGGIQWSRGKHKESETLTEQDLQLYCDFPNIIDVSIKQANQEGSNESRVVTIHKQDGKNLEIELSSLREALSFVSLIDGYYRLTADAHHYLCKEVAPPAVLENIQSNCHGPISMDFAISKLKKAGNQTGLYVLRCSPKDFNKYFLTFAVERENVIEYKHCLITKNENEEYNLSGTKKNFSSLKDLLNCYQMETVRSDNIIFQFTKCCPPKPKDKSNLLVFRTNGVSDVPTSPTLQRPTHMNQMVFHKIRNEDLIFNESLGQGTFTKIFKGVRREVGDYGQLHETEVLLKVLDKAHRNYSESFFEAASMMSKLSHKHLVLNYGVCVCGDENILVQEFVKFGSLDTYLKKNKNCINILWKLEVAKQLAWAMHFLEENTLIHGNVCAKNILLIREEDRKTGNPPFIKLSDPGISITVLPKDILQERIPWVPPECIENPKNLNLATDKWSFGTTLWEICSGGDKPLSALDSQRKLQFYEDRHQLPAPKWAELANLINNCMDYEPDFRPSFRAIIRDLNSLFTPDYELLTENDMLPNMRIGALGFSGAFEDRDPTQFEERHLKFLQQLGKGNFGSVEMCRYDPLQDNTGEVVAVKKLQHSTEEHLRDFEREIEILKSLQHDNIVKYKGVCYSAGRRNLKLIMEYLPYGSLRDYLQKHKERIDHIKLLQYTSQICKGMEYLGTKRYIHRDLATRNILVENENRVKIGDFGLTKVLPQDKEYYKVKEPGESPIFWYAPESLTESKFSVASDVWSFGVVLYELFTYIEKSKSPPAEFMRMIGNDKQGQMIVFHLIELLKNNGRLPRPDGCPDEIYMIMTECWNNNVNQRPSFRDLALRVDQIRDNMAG

JAK3 = target: T4, JAK3 (Homo sapiens, UniProt P52333); assay: JAK3 Inhibition Assay (Omnia kinase fluorescence peptide substrate); details: averaged IC50 ranges; 10 μM (Km app) or 1 mM ATP, 2.5 nM JAK3
T4 construct: purchased Invitrogen Corporation, Carlsbad, Calif; IVGN PV4080
T4 sequence (P52333 1-1124): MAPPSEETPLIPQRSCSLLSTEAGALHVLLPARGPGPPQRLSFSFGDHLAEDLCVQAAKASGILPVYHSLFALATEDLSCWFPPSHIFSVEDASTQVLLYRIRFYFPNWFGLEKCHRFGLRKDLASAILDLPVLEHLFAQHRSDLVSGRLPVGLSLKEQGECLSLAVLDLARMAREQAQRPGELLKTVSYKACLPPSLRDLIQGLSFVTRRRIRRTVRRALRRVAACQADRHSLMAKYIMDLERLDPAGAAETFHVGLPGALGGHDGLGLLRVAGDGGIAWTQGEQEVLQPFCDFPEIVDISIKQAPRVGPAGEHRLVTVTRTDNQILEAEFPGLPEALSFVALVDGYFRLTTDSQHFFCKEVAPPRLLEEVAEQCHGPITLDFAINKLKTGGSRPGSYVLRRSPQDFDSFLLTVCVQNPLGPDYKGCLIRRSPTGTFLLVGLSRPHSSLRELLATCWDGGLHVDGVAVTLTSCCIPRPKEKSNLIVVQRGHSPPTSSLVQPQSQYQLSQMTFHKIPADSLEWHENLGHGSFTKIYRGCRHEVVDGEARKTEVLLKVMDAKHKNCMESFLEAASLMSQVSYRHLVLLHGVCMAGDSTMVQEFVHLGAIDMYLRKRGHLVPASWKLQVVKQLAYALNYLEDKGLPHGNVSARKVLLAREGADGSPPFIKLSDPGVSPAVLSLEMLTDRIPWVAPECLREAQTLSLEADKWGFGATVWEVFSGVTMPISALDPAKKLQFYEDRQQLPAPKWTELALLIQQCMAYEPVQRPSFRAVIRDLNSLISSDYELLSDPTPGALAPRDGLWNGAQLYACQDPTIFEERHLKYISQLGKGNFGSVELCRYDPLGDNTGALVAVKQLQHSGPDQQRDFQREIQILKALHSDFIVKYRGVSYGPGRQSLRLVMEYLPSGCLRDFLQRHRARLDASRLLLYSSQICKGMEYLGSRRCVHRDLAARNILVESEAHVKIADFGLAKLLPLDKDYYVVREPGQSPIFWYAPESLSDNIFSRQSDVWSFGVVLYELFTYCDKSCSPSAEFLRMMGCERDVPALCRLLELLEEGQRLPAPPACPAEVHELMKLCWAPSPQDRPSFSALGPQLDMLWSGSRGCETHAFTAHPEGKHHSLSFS
Outline: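 IC50 is the concentration giving 50 percent of control on a 4-parameter logistic fit of 10-point, 3-fold dilutions from a 10 μM top dose, at 2% final DMSO. Kinetic Sox fluorescence (360/485 nm) was monitored every 50 s for 45 min. Mix: JAK3 2.5 nM, Omnia Y7 peptide 10 μM, ATP 10 μM (Km app) or 1 mM, in HEPES pH 7.4 buffer with MgCl2, Triton X-100 and DTT.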

[1] = system: Tyk2, JAK1, JAK2 and JAK3; assay: in vitro assays (Examples A, B, C and D) taken together; details: Reference Examples; statement in words
Source text: The assays described in Examples A, B, C and D for the determination of Tyk2, JAK1, JAK2 and JAK3 kinase activity, respectively, utilized the Omnia® Kinase fluorescence peptide substrate-based technology (Invitrogen). The specific components of the assay mixture are described in Examples A, B, C and D. In these assays, Mg^2+ is chelated upon phosphorylation of the Omnia peptide by the kinase to form a bridge between the chelation-enhanced fluorophore Sox and the phosphate, resulting in an increase in fluorescence emission at 485 nm when excited at […]. The reactions were therefore read at excitation 360 nm and emission was measured at 485 nm every 50 seconds for 45 minutes using a PerkinElmer EnVision Multilabel Plate Reader.
The final buffer conditions for Tyk2, JAK1, JAK2, and JAK3 assays were as follows: 25 mM HEPES, pH 7.4, 10 mM MgCl2, 0.01% Triton X-100 and 1 mM DTT.
Compounds were prepared at 50× the final concentration in DMSO by conducting 3-fold serial dilutions from a 500-μM intermediate dilution to give a 10-point dosing curve having a high dose of 10 μM. Two-μL aliquots of these were transferred to a fresh plate for a ten-fold intermediate dilution with assay buffer. Five-μL aliquots of the diluted compounds were then transferred to 20-μL of assay mixtures described in Examples A, B, C and D for a final concentration of DMSO of 2%. A standard or reference compound was typically included on each assay plate to validate that plate. For each plate, percent of control (POC) values were calculated for each well according to the following equation: […]
Compounds of Formula I were screened for their ability to inhibit Tyk2 using the general enzyme inhibition assay method, in which the assay mixture contained 10 μM (Km app) or 1 mM ATP, 8 μM Omnia® Y12 peptide (Catalog #IVGN KPZ3121C; Invitrogen Corporation, Carlsbad, Calif.) and 2 nM Tyk2 in a total volume of 20 μL. Human Tyk2 kinase domain, comprising amino acids 886 to 1187 with 10 additional histidine residues (histidine tag) on the carboxy terminus, was expressed and purified from bacculovirus in-house at Array BioPharma Inc. (Boulder, Colo.). The histidine tag was cleaved after purification using standard conditions.
Compounds of Formula I were screened for their ability to inhibit JAK1 using the general enzyme inhibition assay method, in which the assay mixture contained 40 μM (Km app) or 1 mM ATP, 8 μM Omnia® Y12 peptide (Catalog #IVGN KPZ3121C; Invitrogen Corporation, Carlsbad, Calif.) and 15 nM JAK1 in a total volume of 20 μL. JAK1 was purchased from Invitrogen Corporation, Carlsbad, Calif. (catalog #IVGN PV4775).
(§1) Compounds of Formula I were screened for their ability to inhibit JAK2 using the general enzyme inhibition assay method, in which the assay mixture contained 25 μM (Km app) or 1 mM ATP, 10 μM Omnia® Y7 peptide (Catalog #IVGN KNZ3071C, Invitrogen Corporation, Carlsbad, Calif.) and 5 nM JAK2 in a total volume of 20 μL. JAK2 was purchased from Invitrogen Corporation, Carlsbad, Calif. (catalog #IVGN PV4288).
as §1, with “JAK3” for “JAK2”, “10” for “25”, “2.5” for “5”, “PV4080).” for “PV4288).”

Compound	IC50 (Human Tyk2 kinase domain)	IC50 (JAK1)	IC50 (JAK2)	IC50 (JAK3)	activity in the in vitro assays [1]
CCN1CC(CCF)(n2cc(-c3nc(-c4cnn(C)c4)cc4nccn34)cn2)C1 [Example 84, 5-(1-(1-ethyl-3-(2-fluoroethyl)azetidin-3-yl)-1H-pyrazol-4-yl)-7-(1-methyl-1H-pyrazol-4-yl)imidazo[1,2-c]pyrimidine]	> 1000 nM	> 1000 nM	> 1000 nM	> 1000 nM	weakly active
CCNC(=O)N1CC(CCF)(n2cc(-c3nc(-c4cnn(C)c4)cc4nccn34)cn2)C1 [Example 92, N-ethyl-3-(2-fluoroethyl)-3-(4-(7-(1-methyl-1H-pyrazol-4-yl)imidazo[1,2-c]pyrimidin-5-yl)-1H-pyrazol-1-yl)azetidine-1-carboxamide]	> 1000 nM	> 1000 nM	> 1000 nM	> 1000 nM	weakly active
Cn1cc(-c2cc3nccn3c(-c3cnn(C4(CC(C)(C)O)CN(S(=O)(=O)C(F)(F)F)C4)c3)n2)cn1 [Example 94, 2-methyl-1-(3-(4-(7-(1-methyl-1H-pyrazol-4-yl)imidazo[1,2-c]pyrimidin-5-yl)-1H-pyrazol-1-yl)-1-((trifluoromethyl)sulfonyl)azetidin-3-yl)propan-2-ol]	100 to 1000 nM	100 to 1000 nM	100 to 1000 nM	> 1000 nM	–
CC(C)S(=O)(=O)N1CC(CCF)(n2cc(-c3nc(-c4cnn(C)c4)cc4nccn34)cn2)C1 [Example 95, 5-(1-(3-(2-fluoroethyl)-1-(isopropylsulfonyl)azetidin-3-yl)-1H-pyrazol-4-yl)-7-(1-methyl-1H-pyrazol-4-yl)imidazo[1,2-c]pyrimidine]	100 to 1000 nM	> 1000 nM	100 to 1000 nM	> 1000 nM	–
CC(=O)N1CC(CCF)(n2cc(-c3nc(-c4cnn(C)c4)cc4nccn34)cn2)C1 [Example 96, 1-(3-(2-fluoroethyl)-3-(4-(7-(1-methyl-1H-pyrazol-4-yl)imidazo[1,2-c]pyrimidin-5-yl)-1H-pyrazol-1-yl)azetidin-1-yl)ethanone]	> 1000 nM	> 1000 nM	> 1000 nM	> 1000 nM	–
Cn1cc(-c2cc3nccn3c(-c3ccn([C@@H](C[C@H](O)C(F)(F)F)C4CC4)c3)n2)cn1 [Example 102, (2S,4S)-4-cyclopropyl-1,1,1-trifluoro-4-(3-(7-(1-methyl-1H-pyrazol-4-yl)imidazo[1,2-c]pyrimidin-5-yl)-1H-pyrrol-1-yl)butan-2-ol]	10 to 100 nM	100 to 1000 nM	100 to 1000 nM	> 1000 nM	–

More lines, main results first:

IC50 (Human Tyk2 kinase domain)	IC50 (JAK1)	IC50 (JAK2)	IC50 (JAK3)	Compound	activity in the in vitro assays [1]
> 1000 nM	> 1000 nM	> 1000 nM	> 1000 nM	COCCC(C1CCOC1)n1cc(-c2nc(-c3cnn(C)c3)cc3nccn23)cn1 (stereo not drawn) [Example 75, 5-(1-(3-methoxy-1-(tetrahydrofuran-3-yl)propyl)-1H-pyrazol-4-yl)-7-(1-methyl-1H-pyrazol-4-yl)imidazo[1,2-c]pyrimidine]	weakly active
< 10 nM	10 to 100 nM	10 to 100 nM	100 to 1000 nM	COCCC1(n2cc(-c3nc(-c4cnn(C)c4)cc4nccn34)cn2)CN(S(=O)(=O)C(F)(F)F)C1 [Example 100, 5-(1-(3-(2-methoxyethyl)-1-((trifluoromethyl)sulfonyl)azetidin-3-yl)-1H-pyrazol-4-yl)-7-(1-methyl-1H-pyrazol-4-yl)imidazo[1,2-c]pyrimidine]	–
100 to 1000 nM	100 to 1000 nM	100 to 1000 nM	100 to 1000 nM	Cn1cc(-c2cc3nccn3c(-c3ccn([C@@H](C[C@@H](O)C(F)(F)F)C4CC4)c3)n2)cn1 [Example 101, (2R,4S)-4-cyclopropyl-1,1,1-trifluoro-4-(3-(7-(1-methyl-1H-pyrazol-4-yl)imidazo[1,2-c]pyrimidin-5-yl)-1H-pyrrol-1-yl)butan-2-ol]	–
